What was measured:
[1] = test system: Oct4 and Nanog promoter regions; experiment: DNA methylation analysis (bisulfite sequencing, MSP); format: cell-based, mouse; settings: E14 cells, 5 days on collagen-IV
Excerpt: DNA Methylation Analysis. One μg of genomic DNA was subjected to bisulfite treatment using CPGENOME Fast DNA Modification Kit (Chemicon Int.). For bisulfite sequencing, the modified DNA was amplified by nested polymerase chain reaction (PCR) using two forward (F) primers and one reverse (R) primer: Oct4 (F1, 5′-GTTGTTTTGTTTTGGTTTTGGATAT-3′, SEQ ID NO:57; F2, 5′-ATGGGTTGAAATATTGGGTTTATTTA-3′, SEQ ID N:58; and R, 5′-CCACCCTCTAACCTTAACCTCTAAC-3′, SEQ ID NO:59) and Nanog (F1, 5′-GAGGATGTTTTTTAAGTTTTTTTT-3′, SEQ ID NO:60; F2, 5′-AATGTTTATGGTGGATTTTGTAGGT-3′, SEQ ID NO:;61; and R, 5′-CCCACACTCATATCAATATAATAAC-3′, SEQ ID NO:62). The resulting PCR product was gel purified, subcloned into pGEM-T vector (Promega) and sequenced using M13R primer. Following primers were used for MSP: Oct4, (F) 5′-GGTTTTAGAAATAATTGGTATACGA-3′ (SEQ ID NO:63), and (R) 5′-CTATTAACACTACACCCTCTCGAC-3′ (SEQ ID NO:64); and Nanog, (F) 5′-ATTTGTGAGTATAAGGATTGATCGG-3′ (SEQ ID NO:65), and (R) 5′-TTTCTTTAAAATAAAATTTCACGTA-3′ (SEQ ID NO:66). PCR products were analyzed on agarose gel.

STAT3 = STAT3 phosphorylation, Western blot; format: cell-based, mouse; settings: E14 cells
Procedure: E14 ES Cell Cultures. Cells were grown in ES-IMDM media (Lonza, Walkersville, Md.) in a feeder-free condition. ES-IMDM was supplemented with 15% serum, 10^5 U/100 ml of LIF (ESGRO, Millipore, Calif.) and 0.0124% monothioglycerol (MTG; Sigma Aldrich). Cells were grown for 3-5 days with change of medium every day. For inducing differentiation in monolayer culture and to determine the effect of Gö6983 in preventing differentiation, E14 cells were cultured on gelatin-coated plastics for 8 days without LIF. Details of experiments performed at clonal-density are described herein. To maintain E14 cells with Gö6983, serum supplemented ES-IMDM was used in the presence of 5 μM Gö6983 and was passed after every 3-5 days. For all assays involving elucidation of different signaling mechanism responsible for maintenance of pluripotency, cells from a ˜70% confluent ES culture plate were washed two times with 1× phosphate-buffered saline (PBS), trypsinized and plated on a 6-well tissue culture plate and treated with or without LIF or Gö6983 or different inhibitors for ˜10 hours followed by preparation of protein lysates and RNA. The PKCζ knocked-down E14 cells that were generated in this study were maintained in serum supplemented ES-IMDM on gelatin-coated plates in the absence of Gö6983 or LIF or any other inhibitor and passed after 3-5 days. […]

Stat3−/− ES cells = Stat3−/− ES cells in serum-free N2B27 medium; format: cell-based, mouse
Procedure: Stat3^−/− ES Cells. Passage 12 Stat3^−/− ES cells were maintained on N2B27 medium with 1 μM PD0325901 and 3 μM CHIR99021 and passaged every 3-4 days. For studies involving Gö6983, around 1-2×10^4 cells were plated on 6-well plates having N2B27 medium with or without 5 μM Gö6983 and analyzed for the expression of pluripotency markers.

Eed−/− ES cells = Eed−/− ES cells on collagen IV without LIF
Excerpt: Eed^−/− ES Cells. Eed^−/− ES cells, passage 4, were maintained in same medium as mentioned for Ezh2^−/− cells but supplemented with extra LIF (2000 U/ml) to suppress spontaneous differentiation.

129/Sv MEFs = experiment: Generation of iPS cells from MEFs; format: cell-based, mouse
Procedure: Generation of iPS Cells. iPSCs were derived using lentiviral vectors (STEMGENT), expressing four mouse transcription factors (Oct4, Sox2, Klf4 […] c-Myc) under the control of the doxycycline (Dox)-inducible tetO operator. 129/Sv MEFs were infected with viral mix following manufacturer's protocol. Twenty hours post-transduction, cells were reseeded in ES cell growth medium with either LIF or Gö6983 at a density of 5×10^4 cells per well of a 6-well plate and treated with Dox (2 μg/ml) for 48 hours. To determine the phenotype of the iPS colonies, expression of two pluripotency markers, Nanog and Rex-1, were analyzed. For further analysis, each visible iPS colony was manually picked, trypsinized, cells were re-plated at clonal and higher density in medium with Gö6983 and the expression of pluripotent markers were confirmed by RT-PCR and immunofluorescence. For chimera generation, cells from two different iPS clones were propagated at clonal density with Gö6983, expanded for four passages and were injected into blastocysts.

E14 ES cells = experiment: Cell Proliferation Assay; format: cell-based; settings: Mus musculus
Procedure: Cell Proliferation Assay. E14 ES cells were seeded and incubated for 2 days in the presence of different concentrations of Gö6983. Cell proliferation was measured with […] 96 AQUEOUS One Solution Reagent (Promega, Madison, Wis.) following the manufacturer's protocol.

Compound: COc1ccc2c(c1)c(C1=C(c3c[nH]c4ccccc34)C(=O)NC1=O)cn2CCCN(C)C [Gö6983, 3-[1-[3-(dimethylamino)propyl]5-methoxy-1H-indol-3-yl]-4-(1H-indol-3-yl)-1H-pyrrole-2,5-dione]
- DNA methylation of promoter regions of Oct4 and Nanog [1]: remained largely unmethylated
- STAT3 phosphorylation (STAT3): did not induce
- differentiation of Stat3−/− ES cells (Stat3−/− ES cells): efficiently prevented differentiation
- colony morphology and pluripotency markers of Eed−/− cells (Eed−/− ES cells; collagen IV without LIF): largely maintained undifferentiated colony morphology and expression of pluripotency markers
- expression of developmental regulator genes in Eed−/− cells (Eed−/− ES cells; in the presence of Gö6983): significantly induced
- efficiency of obtaining matured iPSC colonies compared to LIF (129/Sv MEFs; FIG. 4B): three fold higher
- time to appearance of ES cell-like iPSC colonies (129/Sv MEFs; MEFs with Oct4, Sox2, KLF4, cMyc): 12 days
- rate of obtaining iPSC colonies compared to LIF (129/Sv MEFs; colonies defined by Nanog and Rex-1, FIG. 4A): significantly faster rate
- propagation of iPSCs at clonal density (129/Sv MEFs; with Gö6983): readily propagated at clonal density
- inhibition at 2.5 µM (E14 ES cells): ~30%

From patent US8193235B2, “Compositions and methods for establishing and maintaining stem cells in an undifferentiated state” (University of Kansas, priority 2009, dated 2012)
